# System: 454973-116-R2-J3-PDC spheroids, viability, % test/control
# Test: Anticancer human tumor 454973-116-R2-J3-PDC patient-derived pancreatic carcinoma cell line growth inhibition [GQUAD]
# Settings: spheroids with HUVEC and MSC; for IC50: curve of first compound; for viability, T/C: stronger effect = lower value
# Procedure, shortened: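 Tumor cells were grown as complex spheroids with HUVEC endothelial cells and mesenchymal stem cells as stroma. G-quadruplex stabilizers were combined with targeted agents over half-log dilutions from near the clinical Cmax, or from 10 microM.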
# [1] = second compound 0.0316 µM, first compound 0.0316 µM
# [2] = second compound 0.0316 µM, first compound 0.1 µM
# [3] = second compound 0.0316 µM, first compound 0.316 µM
# [4] = second compound 0.0316 µM, first compound 1 µM
# [5] = second compound 0.0316 µM, first compound 3.16 µM
# [6] = second compound 0.0316 µM, first compound 10 µM
# [7] = second compound 0.1 µM, first compound 0.0316 µM
# [8] = second compound 0.1 µM, first compound 0.1 µM
# [9] = second compound 0.1 µM, first compound 0.316 µM
# [10] = second compound 0.1 µM, first compound 1 µM
# [11] = second compound 0.1 µM, first compound 3.16 µM
# [12] = second compound 0.1 µM, first compound 10 µM
# [13] = second compound 0.316 µM, first compound 0.0316 µM
# [14] = second compound 0.316 µM, first compound 0.1 µM
# [15] = second compound 0.316 µM, first compound 0.316 µM
# [16] = second compound 0.316 µM, first compound 1 µM
# [17] = second compound 0.316 µM, first compound 3.16 µM
# [18] = second compound 0.316 µM, first compound 10 µM
# [19] = second compound 1 µM, first compound 0.0316 µM
# [20] = second compound 1 µM, first compound 0.1 µM
# [21] = second compound 1 µM, first compound 0.316 µM
# [22] = second compound 1 µM, first compound 1 µM
# [23] = second compound 1 µM, first compound 3.16 µM
# [24] = second compound 1 µM, first compound 10 µM
# [25] = second compound 3.16 µM, first compound 0.0316 µM
# [26] = second compound 3.16 µM, first compound 0.1 µM
# [27] = second compound 3.16 µM, first compound 0.316 µM
# [28] = second compound 3.16 µM, first compound 1 µM
# [29] = second compound 3.16 µM, first compound 3.16 µM
# [30] = second compound 3.16 µM, first compound 10 µM
# [31] = second compound 10 µM, first compound 0.0316 µM
# [32] = second compound 10 µM, first compound 0.1 µM
# [33] = second compound 10 µM, first compound 0.316 µM
# [34] = second compound 10 µM, first compound 1 µM
# [35] = second compound 10 µM, first compound 3.16 µM
# [36] = second compound 10 µM, first compound 10 µM
# 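Further: spheroids exposed to compounds for seven days.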
# 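Wherever viability, T/C is given: 100% = DMSO vehicle control viability.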
smiles,measurement,setting,value
O=c1[nH]cc(F)c(=O)[nH]1 + CN(C)c1ccc(Nc2c3ccc(NC(=O)CCN4CCCC4)cc3nc3cc(NC(=O)CCN4CCCC4)ccc23)cc1,IC50,second compound 0.0316 µM,2.12 µM
same,IC50,second compound 0.1 µM,2.06 µM
same,IC50,second compound 0.316 µM,2.25 µM
same,IC50,second compound 1 µM,1.46 µM
same,IC50,second compound 3.16 µM,1.58 µM
same,IC50,second compound 10 µM,1.92 µM
same,"viability, T/C",[1],114%
same,"viability, T/C",[2],98.1%
same,"viability, T/C",[3],108%
same,"viability, T/C",[4],84.2%
same,"viability, T/C",[5],32.1%
same,"viability, T/C",[6],30.2%
same,"viability, T/C",[7],106%
same,"viability, T/C",[8],95.6%
same,"viability, T/C",[9],103%
same,"viability, T/C",[10],83.4%
same,"viability, T/C",[11],28.5%
same,"viability, T/C",[12],31.7%
same,"viability, T/C",[13],102%
same,"viability, T/C",[14],103%
same,"viability, T/C",[15],96.8%
same,"viability, T/C",[16],81.1%
same,"viability, T/C",[17],35.1%
same,"viability, T/C",[18],38.6%
same,"viability, T/C",[19],92.5%
same,"viability, T/C",[20],99%
same,"viability, T/C",[21],89.2%
same,"viability, T/C",[22],56.9%
same,"viability, T/C",[23],35.7%
same,"viability, T/C",[24],35.1%
same,"viability, T/C",[25],89.5%
same,"viability, T/C",[26],71.5%
same,"viability, T/C",[27],95.7%
same,"viability, T/C",[28],59.9%
same,"viability, T/C",[29],32.2%
same,"viability, T/C",[30],37.6%
same,"viability, T/C",[31],78.9%
same,"viability, T/C",[32],74.2%
same,"viability, T/C",[33],78%
same,"viability, T/C",[34],64.8%
same,"viability, T/C",[35],38.7%
same,"viability, T/C",[36],36%
O=c1[nH]cc(F)c(=O)[nH]1 + Cc1cnc(CNC(=O)c2c(=O)c3ccc(N4CCCN(C)CC4)nc3n3c2sc2ccccc23)cn1,IC50,second compound 0.0316 µM,1.64 µM
same,IC50,second compound 0.1 µM,2.2 µM
same,IC50,second compound 0.316 µM,> 10 µM
same,IC50,second compound 1 µM,> 10 µM
same,IC50,second compound 3.16 µM,> 10 µM
same,IC50,second compound 10 µM,< 0.0316 µM
same,"viability, T/C",[1],103%
same,"viability, T/C",[2],92.6%
same,"viability, T/C",[3],98.9%
same,"viability, T/C",[4],59.6%
same,"viability, T/C",[5],33.9%
same,"viability, T/C",[6],40.7%
same,"viability, T/C",[7],89.7%
same,"viability, T/C",[8],90.1%
same,"viability, T/C",[9],78.6%
same,"viability, T/C",[10],66.3%
same,"viability, T/C",[11],37.9%
same,"viability, T/C",[12],44.8%
same,"viability, T/C",[13],73.8%
same,"viability, T/C",[14],84.2%
same,"viability, T/C",[15],78.1%
same,"viability, T/C",[16],60.2%
same,"viability, T/C",[17],46.5%
same,"viability, T/C",[18],53.8%
same,"viability, T/C",[19],66.8%
same,"viability, T/C",[20],67.2%
same,"viability, T/C",[21],79.4%
same,"viability, T/C",[22],60.7%
same,"viability, T/C",[23],50.1%
same,"viability, T/C",[24],52.3%
same,"viability, T/C",[25],62.1%
same,"viability, T/C",[26],64.4%
same,"viability, T/C",[27],64.2%
same,"viability, T/C",[28],57.3%
same,"viability, T/C",[29],59.3%
same,"viability, T/C",[30],53.9%
same,"viability, T/C",[31],0.72%
same,"viability, T/C",[32],17.2%
same,"viability, T/C",[33],52.7%
same,"viability, T/C",[34],48%
same,"viability, T/C",[35],18.3%
same,"viability, T/C",[36],0.22%

# Reference: PubChem BioAssay AID2060508 (Molecular Pharmacology Branch, DTP, NCI, 2025)
